This is an account of results in ChEMBL document CHEMBL5614427, “Discovery and Optimization of N-Heteroaryl Indazole LRRK2 Inhibitors” (J Med Chem, 2024).

Usually logD stands for the decadic logarithm of the distribution of all forms, ionised or not, between an organic phase and buffer at a given pH. As usually defined, the bioavailability is the share of a dose that reaches the circulation, judged against a reference dose that is usually intravenous. As usually defined, the MRT is the average time that molecules of a dose stay in the body. What is called AUC is concentration integrated over time.

The nature of data set [1]: Lipophilicity, logD of compound at pH 7 by shake flask based HPLC method. The data set is classed as physicochemical. The note with it: buffer.
The nature of data set [2]: Oral bioavailability in Wistar Han rat at 1 mg/kg measured upto 24 hrs by LC-MS/MS analysis. The data set is classed as ADME, organism-based. Particulars: in vivo.
A short description of data set [3]: Mean residence time in Beagle dog at 0.25 mg/kg, iv measured upto 24 hrs by LC-MS/MS analysis. The note with it: in vivo. The data set is classed as ADME, organism-based, Canis lupus familiaris.
Data set [4] is described as follows: Oral bioavailability in Beagle dog at 0.5 mg/kg measured upto 24 hrs by LC-MS/MS analysis. The data set is classed as ADME, organism-based, Canis lupus familiaris. Particulars: in vivo.
A short description of data set [5]: Mean residence time in Wistar Han rat at 0.1 mg/kg, iv administered as cassette dosing measured upto 24 hrs by LC-MS/MS analysis. The data set is classed as ADME, organism-based. Particulars: in vivo.
Data set [6] in a line: Oral bioavailability in Wistar Han rat at 10 mg/kg measured upto 24 hrs by LC-MS/MS analysis. The note with it: in vivo. The data set is classed as ADME, organism-based.
Data set [7] can be described thus: Mean residence time in Wistar Han rat at 2 mg/kg, iv measured upto 24 hrs by LC-MS/MS analysis. The data set is classed as ADME, organism-based. Particulars: in vivo.
Data set [8] is described as follows: AUC in rat at 100 mg/kg, po BID. The data set is classed as ADME, organism-based. Particulars: in vivo.
A short description of data set [9]: Ratio of unbound brain to plasma drug concentration in Wistar Han rat. The data set is classed as ADME, cell-free. The note with it: read-out: K(p,uu,brain).
Data set [10] can be described thus: Ratio of unbound brain to plasma drug concentration in rhesus monkey. The data set is classed as ADME, cell-free, Macaca mulatta. The note with it: read-out: K(p,uu,brain).
A short description of data set [11]: Ratio of unbound CSF to plasma drug concentration in rhesus monkey. The data set is classed as ADME, Macaca mulatta.

The compound `CC1(N2CCN(c3cc4c(cnn4-c4cnn(-c5ncc(F)cn5)c4)cc3Cl)CC2)COC1` returned a logD in data set [1] of 2.8. Also, the figures for the bioavailability in data set [2] and in data set [4] were 88% and 47%, respectively. Moreover, the MRT came out at 17 h in data set [3] and 4.5 h in [5].

For the compound `CC1(N2CCC(c3cc4c(cnn4-c4cnn(C5CC5)c4)cc3Cl)CC2)COC1`, in data set [1], the logD is 3.4. Besides, in data set [5], the MRT is 3.6 h.

With `C[C@@]1(N2CCN(c3cc4c(cnn4-c4cnn(C56CC(C5)C6)c4)cc3Cl)CC2)COC[C@@H]1O`, the mean residence time MRT in [3] was determined as 12 h; in data set [7], 5.8 h. The bioavailability in [6] was found to be 48%. For the same compound, the AUC in data set [8] was found to be 101 µM·h. The Kp uu in [9] worked out at 0.4.

Compound `CCn1cc(-n2ncc3cc(Cl)c(C4CCN(C5(C)COC5)CC4)cc32)cn1` came in with a logD in [1] of 3.2. This compound also displayed an MRT in [5] of 4 h.

For `CC1(N2CCN(c3cc4c(cnn4-c4cnn(C5CC5)c4)cc3Cl)CC2)CCOC1` (stereo not given), in data set [5], the MRT amounted to 3.2 h.

Turning to `Cn1ccc(-n2ncc3cc(Cl)c(C4CCN(C5COC5)CC4)cc32)n1`, the MRT in data set [5] worked out at 1.5 h.

On to `CO[C@@H]1CCN(c2cc(-n3ncc4ccc([C@]5(C)CC56CC6)cc43)ncn2)C1`, for which the mean residence time (MRT) in data set [5] came to 1 h.

As to `C[C@@]1(N2CCN(c3cc4c(cnn4-c4cnn(C5CC5)c4)cc3Cl)CC2)COC[C@@H]1O`, the MRT in data set [5] amounted to 2.5 h.

For `Cn1cc(-n2ncc3cc(Cl)c(C4CCN(C5COC5)CC4)cc32)cn1`, the bioavailability in [2] turned out to be 77%; in data set [4], 59%. Further, the Kp uu amounted to 0.9 in [10], 1 in data set [11] and 0.4 in [9]. Further, the MRT in data set [3] and in data set [5] was 2.1 h throughout.

`Cn1ccc(-n2ncc3ccc([C@]4(C#N)CC45CC5)cc32)n1` came in with an MRT in data set [5] of 0.8 h. The Kp uu in data set [9] worked out at 1.

The compound `COC12CC(n3cc(-n4ncc5cc(Cl)c(N6CCN(C7(C)COC7)CC6)cc54)cn3)(C1)C2` registered an MRT in [5] of 3.2 h.

With `Cc1nc(-n2ncc3ccc([C@]4(C#N)CC45CC5)cc32)cs1`, the MRT in data set [5] was determined as 0.8 h. Further, in data set [9], the Kp uu was 0.5.

In the case of `CC1(N2CCN(c3cc4c(cnn4-c4cnn(C5CC5)c4)cc3Cl)CC2)COC1`, the MRT in [5] came to 2.8 h.

In the case of `CC1(N2CCN(c3cc4c(cnn4-c4cnn(C56CC(C5)C6)c4)cc3Cl)CC2)COC1`, the MRT in data set [5] was 3.4 h.

Compound `CC1(N2CCC(c3cc4c(cnn4-c4cnn(-c5ncc(F)cn5)c4)cc3Cl)CC2)COC1` had a logD in [1] of 3.3. Also, the MRT in data set [5] amounted to 3.3 h.

`CC1(N2CCN(c3cc4c(cnn4-c4cnn(C56CC(C(F)F)(C5)C6)c4)cc3Cl)CC2)COC1` registered an MRT in data set [5] of 2.7 h.

As for `CC1(N2CCC(c3cc4c(cnn4-c4cnn(C(F)F)c4)cc3Cl)CC2)COC1`, the logD in data set [1] is 3.7. Moreover, in data set [5], the MRT is 3.5 h.

In data set [5], `COCC12CC(n3cc(-n4ncc5cc(Cl)c(N6CCN(C7(C)COC7)CC6)cc54)cn3)(C1)C2` showed an MRT of 2.2 h.

Take `CO[C@H]1C[C@H](n2cc(-n3ncc4cc(Cl)c(C5CCN(C6(C)COC6)CC5)cc43)cn2)C1`: the logD in [1] was found to be 3.5. In data set [5], this compound came in with an MRT of 4.1 h.

As to `Cn1cc(-n2ncc3cc(Cl)c(C4CCN(C5(C)COC5)CC4)cc32)cn1`, the logD in [1] worked out at 2.8. In data set [5], this compound came in with an MRT of 3.4 h.

`CC1(N2CCN(c3cc4c(cnn4-c4cnn(C56CC(C#N)(C5)C6)c4)cc3Cl)CC2)COC1` yielded an MRT in data set [5] of 2.9 h.

`Cc1cc(-n2ncc3ccc([C@]4(C#N)CC45CC5)cc32)nc(C)n1` gave an MRT in data set [5] of 1 h. Moreover, the Kp uu in data set [9] was determined as 0.19.
